Source: US12478661B2, “Lung cell treatments to prevent or treat disease” (THE JOHNS HOPKINS UNIVERSITY, priority 2017, dated 2025)

Key:
HBEKT cells [1] = test: Seahorse Mitostress cellular metabolism (OCR, ATP production, proton leak); type: cell-based, human; conditions: 30 min after injection, CATR 20 μM, BKA 4 μM
Procedure: For metabolic analysis, HBEKT cells were cultured in 96-well Seahorse assay plates (Agilent) and infected with adenovirus constructs for ANT1, ANT2 and control for target overexpression at 48 hours (MOI 40, Vector BioLabs) or siRNA target suppression using siRNA and Lipofectamine as described above for ANT1, ANT2 or non-targeting control siRNA at 72 hours. After viral infection or siRNA transfection, cells were treated for 4 hours with KSFM media alone or 20% CSE. Cells were washed once in KSFM, followed by washes in buffered Seahorse Assay medium (pH 7.4) and subsequent metabolic testing according to the manufacturer's protocol (Agilent Seahorse XF96). Oligomycin (2 μM, ATPase inhibitor), FCCP (0.25 μM mitochondrial uncoupler) and a cocktail of rotenone (0.5 μM, ETC complex I inhibitor) and antimycin A (0.5 μM, ETC complex III inhibitor) were sequentially injected after three basal rates were measured. Sample measurements were normalized to total cellular mass determined by CyQuant Assay according to the manufacturer protocol (Molecular Probes, ThermoFisher). For experiments including ANT specific inhibitors, carboxyatractyloside (CATR, 20-μM, Sigma), Bongkrekic acid (BKA, 4-μM, Sigma) or vehicle control were injected into wells after basal OCR measurements were taken followed by repeat OCR measurements 30 minutes after compound injection. […]

[2] = tested on: primary ciliated normal human bronchial epithelial cells (NHBEs); test: Airway surface liquid (ASL) thickness in primary NHBEs at air liquid interface; type: cell-based; conditions: CATR 20 μM; for effect on the ANT2 overexpression increase in ASL: BKA 4 μM apical 18 hours, apyrase 10 units 4 hours
Procedure: (§1) The apical surface of cells was washed once with PBS 18 hours prior to the addition of Texas Red. ASL was visualized by adding 10-kD Texas Red-dextran (17.5 μl per 12-well insert, ThermoFisher) to the apical surface of NHBE or HBEKT cultures at air liquid interface, as previously described. ASL was imaged 4 hours later by acquiring 4×4 tiled z-stacks by live-cell confocal microscopy with a heat and CO2 controlled stage (Zeiss 780 with a 40× water objective). Fluorinert ([…] was added to the top of the insert cultures immediately prior to imaging to prevent evaporation. Z-stacks were analyzed by segmentation and pixel thickness analysis. For experiments with ANT inhibitors, CATR (20 μM, Sigma) and BKA (4 μM, Sigma) in 20 μl PBS (or control PBS alone) were added to the apical surface of ALI cultures (NHBEs or HBEKTs) 18 hours prior to ASL assessment. Texas Red was added 4 hours prior to ASL testing. For apyrase treatment, 10 units of apyrase (Sigma) was added with Texas Red-dextran as described above 4 hours prior to ASL assessment.
Thickness across the sample was computed using a custom script, written in Matlab (Mathworks, Natick, MA). Briefly, for each value x in the three-dimensional images, Im(x,y, z), the resultant (y, z) slice was segmented using adaptive thresholding (Matlab command: imbinarize), followed by operations to fill holes (imfill), morphological opening (imopen) and filtering of small regions (bwareaopen) (FIG. 13a). The threshold level was adjusted after preprocessing the complete image and the process repeated. For each y in this binary image, the number of segmented pixels was counted, giving a measure of the thickness in the (x, y) location; see FIG. 13. This gave a histogram of depths over the image (FIG. 13c). An average depth was computed for all pixels in which a non-zero depth was detected (to avoid edge effects). The process was repeated by fixing y and working with the (x, z) slice. The differences between the averages were typically less than 1-2%. Thickness in pixels was converted to μm using a slice thickness of 0.46 μm, the step size used to collect the z-stack.

HBEKT cells [3] = test: Airway surface liquid (ASL) height in HBEKTs at air liquid interface; type: cell-based, human; conditions: CATR 20 μM, BKA 4 μM
Procedure: as §1
Thickness across the sample was computed using a custom script, written in Matlab (Mathworks, Natick, MA). […] For each y in this binary image, the number of segmented pixels was counted, giving a measure of the thickness in the (x, y) location; see FIG. 13. […]

Row | Molecule | ATP production after ANT inhibitor (HBEKT cells [1]) | basal oxidative respiration after ANT inhibitor (HBEKT cells [1]) | effect on the ANT2 overexpression increase in ASL [2] | effect on the ANT2 enhancement of ASL height (HBEKT cells [3]) | ASL in control virus-treated cells [2]
1 | CO[C@H](C/C=C\C=C\CC/C=C/C[C@H](C)/C=C/C(=C\C(=O)O)CC(=O)O)/C(C)=C\C=C(/C)C(=O)O [Bongkrekic acid] | halted | halted | abrogated | abolished | 
2 | C=C1[C@@H]2CC[C@H]3[C@]4(C)C[C@H](O[C@@H]5O[C@H](CO)[C@@H](OS(=O)(=O)O)[C@H](OS(=O)(=O)O)[C@H]5OC(=O)CC(C)C)CC(C(=O)O)(C(=O)O)[C@H]4CC[C@]3(C2)[C@H]1O [carboxyatractyloside] |  |  | abrogated | abolished | trend towards decreasing ASL
3 | apyrase |  |  | reversed |  | 
